From patent publication US7371539B2 (priority 2003, dated 2008)
“Also recorded” adds a separate entry of the source.

How the values were obtained:
Tor-His3 reporter = experiment: Western assay of reporter degradation in liquid culture after cycloheximide (in vivo); format: cell-based, S. cerevisiae; settings: PS-341 200 μM; Δpdr5 strains Pre10-FPR1 and Rpn10-FPR1
Experimental: The aforementioned growth assay was a convenient tool for isolating strains to further explore DTL. […] To address this point, degradation of the reporters was directly measured. Strains Pre10-FPR1 and Rpn10-FPR1 were singly transformed with plasmids that expressed hemagglutinin (HA) epitope-tagged versions of Tor-His3 and TorS1972R-His3. The transformants were grown in liquid culture to early log phase, whereupon cycloheximide was added to halt protein translation. Each culture was then split in two and rapamycin was added to one. Samples were collected at various times and whole-cell protein extracts were generated and used for Western analysis (FIGS. 4A-4H). […] These experiments confirm that the growth deficient phenotype seen on histidine-dropout media was due to the degradation of the Tor-His3 reporter and that the 26S proteasome is necessary for this to occur.
In both assays, rapamycin was added to a final concentration of 1 μM, cycloheximide was added to a final concentration of 30 ng/ml and PS-341 was added to a final concentration of 200 μM. For liquid cultures, samples were extracted at fixed time intervals (0, 30, 60, 90 minutes) and whole cell extracts were made. 25 μg of total protein was used from each sample, resolved by SDS-PAGE and transferred to PVDF membranes. […]

[1] = test system: T1, Tor-His3 with purified 26S proteasomes from strain Rpn10-FPR1; experiment: In vitro degradation assay with purified 26S proteasomes and purified reporter; format: biochemical, S. cerevisiae; settings: PS-341 100 μM, rapamycin 1 μM
T1 construct: made in house; host or cells: reporter: E. coli DH5αPRO (PROTet.133 vector)
Description: Whole, functional 26S proteasomes have been previously affinity-purified for use in biochemical assays (Leggett et al. (2002) Mol. Cell 10:495). The same procedure was used to isolate proteasomes from strain Rpn10-FPR1. HA epitope-tagged versions of Tor-His3 and TorS1972R-His3 were purified from a bacterial expression system and then mixed with the proteasomes, with or without rapamycin. Samples were extracted at regular intervals and reporter degradation was monitored by Western analysis (FIG. 5A). […] Once again, proteolysis of Tor-His3 could be halted upon the addition of the proteasome inhibitor PS-341.
26S proteasomes were affinity purified from strains Pre10-FPR1 and Rpn10 FPR1 using the Rpn11-TEV-ProA tag described previously (Leggett et al. (2002) Mol. Cell 10:495). Cells were grown in YPD, harvested, resuspended in 50 mM Tris-HCl [pH 8], 1 mM EDTA and lysed by French press. Lysates was centrifuged at 15,000×g for 25 minutes, filtered and incubated with IgG resin (ICN) for 1 hr at 4° C. Resin was collected in a column, washed with 100 bed volumes of 50 mM Tris-HCl [pH 8], 50 mM NaCl, 1 mM EDTA buffer and equilibrated with TEV-protease buffer (50 mM Tris-HCl [pH 7.5], 1 mM EDTA, 1 mM DTT). […] The integrity of the 26S complexes and presence of Pre10-FPR1 and Rpn10-FPR1 tagged subunits was analyzed by Coomassie staining, SDS-PAGE and immunodetection. […]

## CC(C)C[C@H](NC(=O)[C@H](Cc1ccccc1)NC(=O)c1cnccn1)B(O)O [PS-341]
Tor-His3 reporter
  effect on degradation of Tor-His3 in the presence of rapamycin: prevented Tor-His3 from degrading; also recorded: halted degradation of Tor-His3
[1]
  effect on proteolysis of Tor-His3 in vitro: halted
